Legend:
[1] = system: phosphorylation of the ribosomal S6 protein; test: Western blot of phospho-S6 in excised xenograft tumors; format: in vivo, athymic nude mice; details: western blot of tumors after the study, 50 mg/kg IP
Procedure: Cells were washed with PBS and whole cell lysates were prepared by incubating cells in […] (Invitrogen Corporation, Carlsbad, Calif.) supplemented with Protease Inhibitor Cocktail (Roche Applied Science, a division of Roche Diagnostics Corporation, Indianapolis, Ind.) and Phosphatase Inhibitor Cocktail (Roche) on ice for 30 minutes. After centrifuging the lysates at 12,000 rpm for 10 minutes at 4° C., the supernatant was collected. Protein concentration was determined using BCA Assay. The same amounts of protein were run on NuPAGE 4-12% Bis-Tris Gel, and then transferred onto a PVDF membrane. […]
The in vivo effects of compounds were determined in a mouse subcutaneous xenograft tumor model wherein AN3-CA cells were implanted subcutaneously into the hind flank of athymic nude mice. […] Tumor volume was determined using the formula L×W2×0.5, where L is the longest length, and W is the shortest length. Tumor volume and body weight was measured twice a week.
Following the study, the tumors from the vehicle and test compound groups were removed from the animals and analyzed for phosho-S6 levels by western blot (FIG. 10C). […]

[2] = system: AKT phosphorylation (Thr308) in AN3-CA cells; test: AKT (T308) Phosphorylation Assay (Meso Scale Discovery); format: cell-based; details: Homo sapiens, 24 hours, FIG. 7A, read-out: IC50 knock down of phospho-AKT (Thr308) levels
Procedure: AN3-CA cells were plated in 900 μl of RPMI-1640 media supplemented with 10% FBS and 1% Pen/Strep at a density of 8×10^5 cells per well in 6-well plates. Cells were allowed to attach by incubation overnight at 37° C. and 5% CO2. Test compounds were diluted to 10× concentrations in RPMI-1640 media (containing 3% DMSO) and 100 μl of these dilutions were added to the appropriate wells containing the cells. The plates containing the drug-treated cells and appropriate controls were incubated for 24 hours. At the end of incubation, phosphorylated AKT was evaluated in treated and control samples using a Meso Scale Discovery (Gaithersburg, Md.) assay kit (human Phospho-Akt (Thr308) kit) and by following the manufacturer's instructions included with the kit. Total AKT (phosphorylated and unphosphorylated) was also evaluated in the samples using a separate kit (Meso Scale Discovery). The percentage of AKT phosphorylated at the Thr308 position (also indicated as T308 herein) was determined by normalizing the phospho-AKT signal to the total AKT signal and then showing the percent phosphorylation in the treated samples relative to the controls.
Briefly, AN3-CA cells were treated with the compound for 24 hours and lysates from these treatments were analyzed for phospho-AKT (Thr308) using the Meso Scale Discovery technology platform as described above.

VEGFR2 = VEGFR2 (Homo sapiens (Human), UniProt P35968); test: Kinase profiling, fluorometric assays by Life Technologies; format: biochemical; details: profiling at 500 nM, FIG. 8
Sequence of VEGFR2 (P35968 20-1356): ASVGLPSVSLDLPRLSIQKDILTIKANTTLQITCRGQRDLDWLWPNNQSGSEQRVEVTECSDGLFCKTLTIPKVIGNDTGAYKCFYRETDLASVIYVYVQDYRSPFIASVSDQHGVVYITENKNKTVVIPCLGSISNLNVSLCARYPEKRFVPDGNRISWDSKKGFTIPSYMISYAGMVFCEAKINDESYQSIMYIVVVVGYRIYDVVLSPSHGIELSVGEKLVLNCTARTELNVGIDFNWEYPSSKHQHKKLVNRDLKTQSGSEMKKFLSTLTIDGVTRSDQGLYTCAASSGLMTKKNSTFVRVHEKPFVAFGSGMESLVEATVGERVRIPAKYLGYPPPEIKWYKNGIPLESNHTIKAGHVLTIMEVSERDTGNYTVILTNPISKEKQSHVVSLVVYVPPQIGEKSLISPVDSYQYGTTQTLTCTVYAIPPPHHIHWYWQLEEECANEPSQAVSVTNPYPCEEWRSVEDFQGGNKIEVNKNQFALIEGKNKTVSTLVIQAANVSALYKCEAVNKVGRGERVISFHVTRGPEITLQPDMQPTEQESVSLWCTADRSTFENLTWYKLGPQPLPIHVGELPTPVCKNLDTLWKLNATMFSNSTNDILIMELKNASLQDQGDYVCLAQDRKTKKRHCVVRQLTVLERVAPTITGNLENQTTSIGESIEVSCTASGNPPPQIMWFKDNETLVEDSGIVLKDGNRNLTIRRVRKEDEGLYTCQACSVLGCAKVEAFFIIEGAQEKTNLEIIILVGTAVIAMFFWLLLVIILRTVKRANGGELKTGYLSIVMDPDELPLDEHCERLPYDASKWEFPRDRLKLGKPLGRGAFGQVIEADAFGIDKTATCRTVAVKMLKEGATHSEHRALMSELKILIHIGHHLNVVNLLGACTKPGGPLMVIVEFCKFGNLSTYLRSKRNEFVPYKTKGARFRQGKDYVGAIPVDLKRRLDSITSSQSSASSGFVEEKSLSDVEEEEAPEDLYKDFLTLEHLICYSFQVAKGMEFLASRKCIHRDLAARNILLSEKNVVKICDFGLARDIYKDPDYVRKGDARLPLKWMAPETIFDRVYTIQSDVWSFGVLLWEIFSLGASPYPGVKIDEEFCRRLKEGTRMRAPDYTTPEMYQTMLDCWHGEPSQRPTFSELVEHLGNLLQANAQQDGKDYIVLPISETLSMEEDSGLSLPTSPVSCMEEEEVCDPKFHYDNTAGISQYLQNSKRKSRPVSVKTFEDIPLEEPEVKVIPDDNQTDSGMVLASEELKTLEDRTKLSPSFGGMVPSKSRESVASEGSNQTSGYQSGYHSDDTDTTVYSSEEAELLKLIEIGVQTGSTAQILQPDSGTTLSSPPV
Procedure: (§1) The panel comprised 78 distinct protein kinases, and data are shown for a subset of 20 kineases (see FIG. 8). Kinase profiling was performed against a focus panel of kinases relevant to PDK1 signaling and other known oncogenic kinases. The activity profiling as performed at 500 nM and percent inhibition at that concentration was determined for each kinase shown.
(§2) The kinase specificity was measured using fluorometric assays performed by Life Technologies (Grand Island, N.Y.). Assay conditions vary for each kinase and are available from Life Technologies, Grand Island, NY. For example, the assay conditions for PDK1 are as follows. The 2×PDK1/Ser/Thr-07 mixture is prepared in 50 mM Tris pH 8.5, 0.01% BRIJ-35, 10 mM MgCl2, 1 mM EGTA, 0.02% NaN3. The final 10 μL Kinase Reaction consists of 7.36-38.7 ng PDK1 and 2 μM Ser/Thr 07. After the 1 hour kinase reaction incubation, 5 μL of a 1:32768 dilution of Development Reagent A is added.

p70S6K = p70S6K (Homo sapiens (Human), UniProt P23443); test: as above; format: biochemical; details: profiling at 500 nM, FIG. 8
Sequence of p70S6K (P23443 whole entry): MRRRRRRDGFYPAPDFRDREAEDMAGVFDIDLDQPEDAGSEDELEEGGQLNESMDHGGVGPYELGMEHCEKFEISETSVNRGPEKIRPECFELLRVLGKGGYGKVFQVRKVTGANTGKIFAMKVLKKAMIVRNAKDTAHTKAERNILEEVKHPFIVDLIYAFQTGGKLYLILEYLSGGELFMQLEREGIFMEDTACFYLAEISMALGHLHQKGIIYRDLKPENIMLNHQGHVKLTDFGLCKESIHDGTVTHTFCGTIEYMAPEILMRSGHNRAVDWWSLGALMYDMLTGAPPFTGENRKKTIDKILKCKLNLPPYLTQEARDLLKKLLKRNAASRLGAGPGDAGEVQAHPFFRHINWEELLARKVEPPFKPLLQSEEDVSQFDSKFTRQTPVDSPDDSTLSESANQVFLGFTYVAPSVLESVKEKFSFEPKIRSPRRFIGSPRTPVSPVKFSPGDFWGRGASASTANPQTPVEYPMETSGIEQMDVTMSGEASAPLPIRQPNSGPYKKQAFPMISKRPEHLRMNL
Procedure: as §1, §2

VEGFR1 = VEGFR1 (Homo sapiens (Human), UniProt P17948); test: as above; format: biochemical; details: profiling at 500 nM, FIG. 8
Sequence of VEGFR1 (P17948 27-1338): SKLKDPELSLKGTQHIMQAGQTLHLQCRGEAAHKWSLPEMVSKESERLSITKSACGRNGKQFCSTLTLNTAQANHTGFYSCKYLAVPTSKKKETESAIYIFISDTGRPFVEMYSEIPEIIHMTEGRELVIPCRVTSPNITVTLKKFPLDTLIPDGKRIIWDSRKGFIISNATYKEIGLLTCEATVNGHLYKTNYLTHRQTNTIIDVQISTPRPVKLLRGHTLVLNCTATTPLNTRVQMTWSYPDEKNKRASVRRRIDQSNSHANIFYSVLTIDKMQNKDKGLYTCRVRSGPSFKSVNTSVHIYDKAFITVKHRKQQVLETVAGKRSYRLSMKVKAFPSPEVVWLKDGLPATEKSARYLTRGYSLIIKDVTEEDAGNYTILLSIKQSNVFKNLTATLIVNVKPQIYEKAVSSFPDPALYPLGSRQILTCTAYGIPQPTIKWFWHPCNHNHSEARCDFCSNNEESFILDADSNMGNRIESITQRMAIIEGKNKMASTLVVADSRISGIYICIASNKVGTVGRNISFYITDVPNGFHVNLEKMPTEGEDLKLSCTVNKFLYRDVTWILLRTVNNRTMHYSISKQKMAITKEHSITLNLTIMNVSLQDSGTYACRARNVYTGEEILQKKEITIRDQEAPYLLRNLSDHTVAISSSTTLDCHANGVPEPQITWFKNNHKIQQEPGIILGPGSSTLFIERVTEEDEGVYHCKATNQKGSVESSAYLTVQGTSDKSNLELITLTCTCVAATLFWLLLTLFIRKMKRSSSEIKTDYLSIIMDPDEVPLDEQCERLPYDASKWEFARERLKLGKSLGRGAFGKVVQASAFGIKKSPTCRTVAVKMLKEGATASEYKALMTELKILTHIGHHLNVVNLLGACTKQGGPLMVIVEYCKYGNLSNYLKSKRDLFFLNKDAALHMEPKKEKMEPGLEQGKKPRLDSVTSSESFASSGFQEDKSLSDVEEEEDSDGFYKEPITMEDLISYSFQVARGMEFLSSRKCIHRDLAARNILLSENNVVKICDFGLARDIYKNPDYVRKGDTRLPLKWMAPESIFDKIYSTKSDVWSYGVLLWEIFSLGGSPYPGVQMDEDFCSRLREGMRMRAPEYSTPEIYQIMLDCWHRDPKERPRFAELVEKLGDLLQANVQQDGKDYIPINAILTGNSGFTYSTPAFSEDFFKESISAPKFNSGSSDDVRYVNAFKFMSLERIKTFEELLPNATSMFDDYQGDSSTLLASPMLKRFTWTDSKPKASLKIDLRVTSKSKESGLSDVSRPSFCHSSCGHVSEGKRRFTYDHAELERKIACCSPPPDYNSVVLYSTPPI
Procedure: as §1, §2

PDGFRA = PDGFRA (Homo sapiens (Human), UniProt P16234); test: as above; format: biochemical; details: profiling at 500 nM, FIG. 8
Sequence of PDGFRA (P16234 24-1089): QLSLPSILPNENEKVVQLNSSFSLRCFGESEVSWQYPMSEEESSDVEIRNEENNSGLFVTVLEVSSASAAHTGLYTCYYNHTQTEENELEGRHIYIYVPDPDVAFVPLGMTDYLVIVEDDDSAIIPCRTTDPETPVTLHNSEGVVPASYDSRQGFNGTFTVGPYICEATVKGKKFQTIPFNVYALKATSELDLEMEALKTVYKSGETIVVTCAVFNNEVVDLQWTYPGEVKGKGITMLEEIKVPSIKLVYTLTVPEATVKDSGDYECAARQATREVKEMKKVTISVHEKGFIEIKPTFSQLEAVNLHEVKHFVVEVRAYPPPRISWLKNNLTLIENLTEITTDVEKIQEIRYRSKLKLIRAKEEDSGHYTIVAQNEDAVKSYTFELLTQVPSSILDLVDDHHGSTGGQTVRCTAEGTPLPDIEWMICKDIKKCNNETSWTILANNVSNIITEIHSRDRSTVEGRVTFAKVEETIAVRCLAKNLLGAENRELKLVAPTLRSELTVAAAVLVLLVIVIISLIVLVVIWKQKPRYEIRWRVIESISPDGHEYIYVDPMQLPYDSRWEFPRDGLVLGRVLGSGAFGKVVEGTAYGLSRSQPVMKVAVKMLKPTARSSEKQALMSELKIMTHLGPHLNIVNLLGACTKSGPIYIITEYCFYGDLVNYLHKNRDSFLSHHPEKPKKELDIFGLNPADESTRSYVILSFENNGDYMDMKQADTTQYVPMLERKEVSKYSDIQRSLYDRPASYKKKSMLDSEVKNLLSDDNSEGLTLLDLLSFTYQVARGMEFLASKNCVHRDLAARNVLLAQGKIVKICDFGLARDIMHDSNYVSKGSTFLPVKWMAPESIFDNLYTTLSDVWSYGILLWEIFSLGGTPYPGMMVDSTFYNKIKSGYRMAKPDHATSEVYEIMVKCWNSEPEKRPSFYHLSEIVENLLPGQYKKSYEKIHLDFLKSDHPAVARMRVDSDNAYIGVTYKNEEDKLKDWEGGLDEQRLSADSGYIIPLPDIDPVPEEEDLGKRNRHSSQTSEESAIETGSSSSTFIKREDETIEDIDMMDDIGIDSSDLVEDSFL
Procedure: as §1, §2

HT-29 = test: Cell viability assay, cancer cell line panel; format: cell-based; details: Homo sapiens, mutation PIK3CA, BRAF
H1975 = test: Cell viability assay, cancer cell line panel; format: cell-based; details: Homo sapiens, NCI-H1975; mutation PIK3CA
AGS = test: Cell viability assay, cancer cell line panel; format: cell-based; details: Homo sapiens, mutation KRAS, PIK3CA
HCT-116 = test: Cell viability assay, cancer cell line panel; format: cell-based; details: Homo sapiens, mutation KRAS, PIK3CA
T47D = test: Cell viability assay, cancer cell line panel; format: cell-based; details: Homo sapiens, mutation PIK3CA
HCT-15 = test: Cell viability assay, cancer cell line panel; format: cell-based; details: Homo sapiens, mutation KRAS, PIK3CA
SK-OV-3 = test: Cell viability assay, cancer cell line panel; format: cell-based; details: Homo sapiens, mutation PIK3CA
BT-20 = test: Cell viability assay, cancer cell line panel; format: cell-based; details: Homo sapiens, mutation PIK3CA

Structure (SMILES) | Phospho-S6 levels in tumors compared to the vehicle group [1] | IC50 [2] | Kinase profiling activity against VEGFR2 (in words) (VEGFR2) | Kinase profiling activity against p70S6K (in words) (p70S6K) | Kinase profiling activity against VEGFR1 (in words) (VEGFR1) | Kinase profiling activity against PDGFRA (in words) (PDGFRA) | IC50 (HT-29) | IC50 (H1975) | IC50 (AGS) | IC50 (HCT-116) | IC50 (T47D) | IC50 (HCT-15) | IC50 (SK-OV-3) | IC50 (BT-20)
CC1CN(c2ccc3nc(-c4n[nH]c5ccc(NC(=O)C6CC6(F)F)cc45)[nH]c3c2)CCO1 (centres unmarked) [Compound 2, 2,2-difluoro-N-(3-(5-(2-methylmorpholino)-1H-benzo[d]imidazol-2-yl)-1H-indazol-5-yl)cyclopropanecarboxamide] | down-regulation of phospho-S6 levels |  |  |  |  |  |  |  |  |  |  |  |  | 
O=C(Nc1ccc2[nH]nc(-c3nc4ccc(N5CCOCC5)cc4[nH]3)c2c1)C1CC1(F)F (centres unmarked) [Compound 1, 2,2-difluoro-N-(3-(5-morpholino-1H-benzo[d]imidazol-2-yl)-1H-indazol-5-yl)cyclopropanecarboxamide] |  | 0.051 µM | relatively potent activity | potent activity | relatively potent activity | relatively potent activity | 10.6 µM | 9.86 µM | 2.77 µM | 2.52 µM | 12.8 µM | 6.99 µM | 1.89 µM | 13.1 µM

— patent publication US8569511B2, “Substituted 3-(1H-benzo[d]imidazol-2-yl)-1H-indazole analogs as inhibitors of the PDK1 kinase” (University of Utah Research Foundation, priority 2011, dated 2013)
